From publication PMC8113459, “Selective inhibition of cullin 3 neddylation through covalent targeting DCN1 protects mice from acetaminophen-induced liver toxicity” (Nature Communications, 2021)
Where “and” joins values, the source holds several entries; their conditions need not be identical. Equal entries are not always repeated. Where two headings read alike, the source gives them in different places.

What was measured:
DCN1 [1] = target: T1, DCN1 (Homo sapiens, UniProt Q96GG9); assay: High-resolution LC-tandem mass spectrometry of tryptic peptides; conditions: for Modifications (DI-548 adduct on DCN1 tryptic peptide): B2 Sequest HT (DI-548) sample, confidence High, not found in Apo sample
Method: Equal amounts of proteins (10 μg) were denatured in 8 M urea. Cysteines were reduced with 10 mM DTT at 45 °C for 30 min and alkylated using 50 mM chloroacetamide (RT, 30 min). Upon dilution of urea to <1.2 M, digestion with 250 ng of sequencing grade, modified trypsin (Promega) was carried out overnight at 37 °C. Reaction was terminated by acidification with trifluoroacetic acid (0.1% v/v) and peptides were purified using SepPak C18 cartridge following the manufacturer’s protocol (Waters Corp). An aliquot of the resulting peptides (~2 µg) was resolved on a nanocapillary reverse phase column (Acclaim PepMap C18, 2 μm, 50 cm, Thermo Fisher Scientific) using 0.1% formic acid/acetonitrile gradient at 300 nL/min and directly introduced in to Q Exactive HF mass spectrometer (Thermo Fisher Scientific, San Jose, CA). MS1 scans were acquired at 60 K resolution (AGC target = 3e^6, max IT = 50 ms). Data-dependent high-energy C-trap dissociation MS/MS spectra were acquired for the 20 most abundant ions (Top20) following each MS1 scan (15 K resolution; AGC target = 1e^5; relative CE ~ 28%). Proteins were identified by searching the data against restricted database containing DCN1 protein sequence and common contaminants using Sequest HT (Proteome Discoverer v2.4, Thermo Fisher Scientific). Search parameters included MS1 mass tolerance of 10 ppm and fragment tolerance of 0.02 Da; two missed cleavages were allowed; carbamidomethylation (+57.02146 Da) and DI-1548 adduct (+510.2665 Da) of cysteine, and oxidation of methionine, deamidation of asparagine and glutamine were considered as potential modifications. False discovery rate (FDR) was determined using target decoy validator and proteins/peptides with an FDR of ≤1% were retained for further analysis. The DI-1548 modified peptide PSMs were manually verified.
Target sequence in this assay (Q96GG9 58-259 limits assumed): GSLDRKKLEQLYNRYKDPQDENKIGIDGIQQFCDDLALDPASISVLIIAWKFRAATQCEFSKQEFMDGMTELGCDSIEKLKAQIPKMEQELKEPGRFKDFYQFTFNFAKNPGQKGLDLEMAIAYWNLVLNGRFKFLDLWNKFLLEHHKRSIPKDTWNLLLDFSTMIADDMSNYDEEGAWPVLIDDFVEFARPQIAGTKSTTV

DCN1 [2] = target: T1, DCN1; assay: Competitive FP binding assay
Method: Competitive FP binding assay was performed as previously described. The IC50 and Ki values of DI-1548 and DI-1548DD were determined in competitive binding experiments. Mixtures of preincubated protein/probe complex solution in the assay buffer (196 μL) and compounds in DMSO (4 μL) were added into assay plates which were incubated at room temperature for 30 min with gentle shaking. The concentrations of DCN1 protein and fluorescent probe were 50 and 5 nM, respectively. […] FP values in millipolarization units were measured using the Infinite M-1000 plate reader (Tecan U.S., Research Triangle Park, NC) in Microfluor 1 96-well, black, round-bottom plates (Thermo Fisher Scientific, Waltham, MA) at an excitation wavelength of 485 nm and an emission wavelength of 530 nm. IC50 values were determined by nonlinear regression fitting of the competition curves using the dose–response inhibition equation (four parameters, variable slopes) included in the Prism/GraphPad software. Ki values were calculated using methods described previously.
Target sequence in this assay (Q96GG9 whole entry): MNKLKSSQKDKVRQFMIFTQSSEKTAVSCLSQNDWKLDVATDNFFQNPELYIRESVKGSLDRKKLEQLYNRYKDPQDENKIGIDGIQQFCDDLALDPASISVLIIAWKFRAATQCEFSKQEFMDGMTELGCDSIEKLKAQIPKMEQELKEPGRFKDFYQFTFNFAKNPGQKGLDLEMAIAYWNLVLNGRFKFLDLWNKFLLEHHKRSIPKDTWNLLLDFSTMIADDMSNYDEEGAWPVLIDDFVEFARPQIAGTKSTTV

four cancer cell lines = assay: Cell viability assay (WST-8), four cancer cell lines; assay type: cell-based, human; conditions: concentrations up to 1000 nM, 72 h
Method: Cell viability assay was performed as previously described. The effect of DCN1 inhibitors on cell growth was evaluated by a WST-8 [2-(2-methoxy-4-nitrophenyl)-3-(4-nitrophenyl)-5-(2,4-disulfophenyl)-2H-tetrazolium, monosodium salt assay (Dojindo Molecular Technologies, Inc). Cells (2000–3000 cells in each well) were seeded in 96-well tissue culture plates in medium (100 μL) and treated with serial dilution of DCN1 inhibitors for 3 days. At the end of incubation, WST-8 dye (20 μL) was added to each well and incubated for 1–3 h, then the absorbance was measured in a microplate reader (Molecular Devices) at 450 nm. Cell growth inhibition was evaluated as the ratio of the absorbance of the sample to that of the control. The values were inserted into Prism software, and the curves and the EC50 values were produced by Prism software.

[3] = Cell viability assay (WST-8), MDA-MB-231; assay type: cell-based, human; conditions: human, MDA-MB-231 cells, replicates, read-out: cell viability relative to control
Summary of the method: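 Cells (2000–3000 per well) were treated with serial dilutions of DCN1 inhibitors for 3 days, then incubated 1–3 h with WST-8 and absorbance read at 450 nm. Growth inhibition was sample-to-control absorbance ratio, with EC50 from fitted curves.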

HO-1 protein = assay: Western blot, HO-1 protein in THLE2 cells; assay type: cell-based, human; conditions: THLE2, Fig. 6b
Method: Western blotting was performed as described previously. Treated cells were lysed by RIPA buffer supplemented with protease inhibitor. The expression level of indicated proteins was examined by immunoblotting analysis and GAPDH was used as the loading control. Antibodies were purchased commercially: cullin 1 (sc-17775, 1:500 dilution) and cullin 2 (sc-166506, 1:500 dilution) from Santa Cruz Biotech (Santa Cruz, CA); cullin 4A (PA5-14542, 1:1000 dilution), cullin 4B (PA5-50647, 1:1000 dilution), and DCN3 (DCUN1D3, PA5-44000, 1:1000 dilution) from Thermo Fisher Scientific (Wayne, MI); cullin 3 (2759, 1:1000), NRF2 (12721, 1:1000 dilution), HO-1 (70081, 1:1000 dilution), and Bim (2819, 1:1000 dilution) from Cell Signaling Technology (Boston, MA); DCN1 (GWB-E3D700, 1:1000 dilution) from GenWay Biotech (San Diego, CA); and cullin 5 (A302-173A, 1:500 dilution) from Bethyl Labs (Montgomery, TX). Results are representative of two independent experiments.

HO-1 mRNA = assay: RT-PCR, HO-1 mRNA in THLE2 cells; assay type: cell-based, human; conditions: for HO-1 mRNA level relative to control: THLE2, 10 nM, replicates
Method: (§1) Supplementary Figure 23. DI‐1859 increases the mRNA level of NRF2 ta rge te d genes NQO1 and
(§2) HO‐1. THLE2 cells we re treated with DI‐1859 at 10 nM fo r 4, 8 and 24 h. Tr e a t e d cells were
(§3) harvested and the mRNA level of HO‐1 and NQO1 we re exa m i n e d by RT‐PCR assay. The probes
(§4) Scientific (Ann Arbor, MI). Data are presented as mean values with n = 2 independent biological […]

NQO1 mRNA = assay: RT-PCR, NQO1 mRNA in THLE2 cells; assay type: cell-based, human; conditions: for NQO1 mRNA level relative to control: THLE2, 10 nM, replicates
Method: as §1, §2, §3, §4

[4] = 4 h (time from row order and b199)
[5] = 8 h (time from row order and b199)
[6] = 24 h (time from row order and b199)

C=C(CN1CCOCC1)C(=O)NC[C@@H](NC(=O)[C@H](Cc1nc2ccc(C(C)C)cc2s1)NC(=O)CC)C1CCCCC1 [DI-1548]
Modifications (DI-548 adduct on DCN1 tryptic peptide) (DCN1 [1]; peptide [R].AATQCEFSK.[Q], DCN_1 [77-85]): 1xDI-548_Haibin [C5]
Modifications (DI-548 adduct on DCN1 tryptic peptide) (DCN1 [1]; peptide [R].AATQCEFSKQEFMDGMTELGCDSIEK.[L], DCN_1 [77-102], 1xCarbamidomethyl [C21] and 1xDeamidated [Q4]): 1xCarbamidomethyl [C21]; 1xDeamidated [Q4]; 1xDI-548_Haibin [C5]
Modifications (DI-548 adduct on DCN1 tryptic peptide) (DCN1 [1]; peptide [R].AATQCEFSKQEFMDGMTELGCDSIEK.[L], DCN_1 [77-102], 1xCarbamidomethyl [C21]): 1xCarbamidomethyl [C21]; 1xDI-548_Haibin [C5]
residue of DCN1 modified (DCN1 [1]; tryptic digested peptides): forms covalent bond with Cys115
FP signal of the competitive binding curve (DCN1 [2]; Concentration (nM) 0.016935, duplicates): 44.2 and 44.7
FP signal of the competitive binding curve (DCN1 [2]; Concentration (nM) 0.050805, duplicates): 43.5 and 45.8
FP signal of the competitive binding curve (DCN1 [2]; Concentration (nM) 0.152416, duplicates): 44.1 and 44.8
FP signal of the competitive binding curve (DCN1 [2]; Concentration (nM) 0.457247, duplicates): 43.8 and 44
FP signal of the competitive binding curve (DCN1 [2]; Concentration (nM) 1.37174, duplicates): 41.3
FP signal of the competitive binding curve (DCN1 [2]; Concentration (nM) 4.11523, duplicates): 32.5 and 31.9
FP signal of the competitive binding curve (DCN1 [2]; Concentration (nM) 12.3457, duplicates): 17.8 and 17.9
FP signal of the competitive binding curve (DCN1 [2]; Concentration (nM) 37.037, duplicates): 15.7 and 15.4
FP signal of the competitive binding curve (DCN1 [2]; Concentration (nM) 111.111, duplicates): 14.3 and 14.5
FP signal of the competitive binding curve (DCN1 [2]; Concentration (nM) 333.333, duplicates): 15.3 and 15.7
FP signal of the competitive binding curve (DCN1 [2]; Concentration (nM) 1000, duplicates): 16.2 and 15.8
IC50 (DCN1 [2]; DCN1 50 nM, probe 5 nM, 30 min): 4.6 nM
Ki (DCN1 [2]; DCN1 50 nM, probe 5 nM, 30 min): < 1 nM
cytotoxicity / cell viability (four cancer cell lines): no cytotoxicity
viability at 72 h ([3]; conc 30, 72 h): 105%
viability at 72 h ([3]; conc 100, 72 h): 97.2%

C=C(CN(C)C)C(=O)NC[C@@H](NC(=O)[C@H](Cc1nc2ccc(C(C)C)cc2s1)NC(=O)CC)C1CCCCC1 [DI-1859]
HO-1 protein level (HO-1 protein): dose dependently upregulates
HO-1 mRNA level relative to control (HO-1 mRNA; [4]): 1.5 and 1.6
HO-1 mRNA level relative to control (HO-1 mRNA; [5]): 1.7 and 1.9
HO-1 mRNA level relative to control (HO-1 mRNA; [6]): 2.4 and 3.9
increase of HO1 mRNA level (HO-1 mRNA; THLE2 liver cells, qRT-PCR): 3 folds
NQO1 mRNA level relative to control (NQO1 mRNA; [4]): 2.3 and 2
NQO1 mRNA level relative to control (NQO1 mRNA; [5]): 2.7 and 2.6
NQO1 mRNA level relative to control (NQO1 mRNA; [6]): 19.3 and 16
increase of NQO1 mRNA level (NQO1 mRNA; THLE2 liver cells, qRT-PCR): 17 folds
